These results are taken from US20230067277A1, “ANALOGUES OF MYCOSPORINE-LIKE AMINO ACID AND USE THEREOF AS SUNSCREENS” (BASF SE, priority 2020, published 2023).

Common to all, as to type: physicochemical
A short description of series [1]: Solubility test in cosmetic solvents and water. As to conditions: for solubility: % m/V; for precipitation visible after: addition to the respective solvent. The procedure:
The solubility of Compounds A to D was tested, wherein the addition of Compound A and B to the respective solvent had been stopped after 50% m/V. In case of Compound C and D, a precipitation after about 1% m/V had been visible. The respective pH-values (see Table 1) had been measured of the final solution or suspension, respectively.

Series [2] can be described thus: Specific extinction coefficient (UV/VIS spectrophotometer). As to conditions: for E (1%, 1 cm), maximum absorbance: d=1 cm, 250 nm to 500 nm. As for the experimental part:
The specific extinction coefficient of Compounds A to D was measured using a Perkin Elmer Lambda 650 UV/VIS Spectrophotometer. A stock solution of concentration c=1 mM of the UV-absorber was prepared in a 100 ml volumetric flask using either buffer or ethanol. Dilution steps followed in order to adjust the concentration, such that the extinction E at optical pathlength d=1 cm will be 1.0±0.5. UV spectrum was determined in a cuvette of an optical pathlength of d=1 cm at 250 nm to 500 nm. With the Beer-Lambert law one obtains the molar decadic extinction coefficient at any wavelength with: The respective specific extinction E %1.1 cm can be obtained via the following equation: […] where M=molecular weight of the UV-absorber. A di-sodium hydrogen phosphate/potassium dihydrogen phosphate buffer (ordering number 1.09439.1000) or ethanol (ordering number 1.00983.2511), each purchased from Merck was used.

Series [3] can be described thus: Incorporation of UV filter into water phase of cosmetic formulation. The conditions noted are these: 2.00 in Formulations 1, 2 and 4; pH 7-8. The procedure: Formulations 1 to 4 and a Placebo formulation were manufactured as follows. Part A and part B (see Table 3) were prepared separately and heated to 75-80° C. Under increasing stirring, part B was incorporated to part A and homogenized with Ultra Turrax for 20 sec. at 11000 rpm. The mixture was let cooled down to rt under stirring and part C was added. At rt pH 7-8 was adjusted with NaOH.

Where [4] appears, read: Water, addition of Compound A and B stopped after 50% m/V.
[5] abbreviates: cosmetic solvent Cetiol Ultimate.

Regarding `CC1=C(NCCO)CCC/C1=N\CCO.Cl` [Compound B, (E)-2-hydroxy-N-(3-((2-hydroxyethyl)amino)-2-methylcyclohex-2-en-1-ylidene)ethan-1-aminium chloride], the “pH-value of the final solution or suspension” value (shortened to “pH-value”) in series [1] (Water) is on record as “(pH 6)”. In addition, the solubility in series [1] (setting [4]) is listed as more than 50.0%; in series [1] (cosmetic solvent Cetiol AB), “insoluble”; in series [1] (setting [5]) it was “insoluble”; in series [1] (cosmetic solvent Myritol 318) it was “insoluble”. Further, in series [2] (FIG. 1), the “specific extinction coefficient / absorbance, comparison among Compounds A to D (FIG. 1)” value is given as “highest specific extinction coefficient”. Besides, the “E (1%, 1 cm), maximum absorbance” value in series [2] (buffer pH7 (phosphate buffer)) is 1725. In series [3], the “incorporation of UV filter into the water phase in sufficiently high concentrations” value (“incorporation” for short) is listed as “could be incorporated into the water phase in sufficiently high concentrations”.
For the compound `COc1ccc(/N=C2\CCC(Nc3ccc(OC)cc3)=C2C)cc1.Cc1ccc(S(=O)(=O)O)cc1` [Compound C, (E)-4-methoxy-N-(3-((4-methoxyphenyl)amino)-2-methylcyclopent-2-en-1-ylidene)benzenaminium 4-methylbenzenesulfonate], the “pH-value” value in series [1] (Water) was “(pH 7)”. Further, the solubility is recorded as less than 1.0% in series [1] (setting [4]), less than 1.2% in series [1] (cosmetic solvent Cetiol AB), less than 1.0% in series [1] (setting [5]) and less than 1.0% in series [1] (cosmetic solvent Myritol 318). The precipitation visible after entry in series [1] is recorded as “about 1 % m/V”. The “E (1%, 1 cm), maximum absorbance” value in series [2] (in EtOH) is 737.
`CC1=C(Nc2ccccc2Br)CC/C1=N\c1ccccc1Br.Cc1ccc(S(=O)(=O)O)cc1` [Compound D, (E)-2-bromo-N-(3-((2-bromophenyl)amino)-2-methylcyclopent-2-en-1-ylidene)benzenaminium 4-methylbenzenesulfonate]: the “pH-value” value in series [1] (Water) is “(pH 7)”. The solubility in series [1] (setting [4]) was less than 1.0%; in series [1] (cosmetic solvent Cetiol AB), less than 1.2%; in series [1] (setting [5]), less than 1.0%; in series [1] (cosmetic solvent Myritol 318), less than 1.0%. Further, in series [1], the precipitation visible after entry is listed as “about 1 % m/V”. In addition, in series [2] (in EtOH), the “E (1%, 1 cm), maximum absorbance” value came to 659. The “incorporation” value in series [3] was “not been possible to solve”.
As to `CC1=C(NCCOCCO)CCC/C1=N\CCOCCO.Cl` [Compound A, (E)-2-(2-hydroxyethoxy)-N-(3-((2-(2-hydroxyethoxy)ethyl)amino)-2-methylcyclohex-2-en-1-ylidene)ethan-1-aminium chloride], the “pH-value” value in series [1] (Water) is “(pH 6)”. Besides, the solubility in series [1] (setting [4]) is listed as more than 50.0%; in series [1] (cosmetic solvent Cetiol AB) it was “insoluble”; in series [1] (setting [5]) it was “insoluble”; in series [1] (cosmetic solvent Myritol 318) it was “insoluble”. The “E (1%, 1 cm), maximum absorbance” value in series [2] (buffer pH7 (phosphate buffer)) stood at 943. The “incorporation” value in series [3] is on record as “could be incorporated into the water phase in sufficiently high concentrations”.
